What was measured:
[1] = test system: CAT protein in lungs; test: IV gene transfer in mice: lung CAT reporter expression (plasmid p4119) by ELISA; assay type: in vivo, ICR female mice; conditions: for mean CAT expression level (CAT ELISA): formulated with cholesterol and plasmid p4119, IV, five mice each, value followed by +/- spread
Method: This example provides an evaluation of the cationic lipid prepared in Example 1.
Two mice studies have been performed for the evaluation of cationic lipids of the present invention, in comparison with DOTIM (see, Liu, et al, Nature Biotechnology 15:167-173 (1997)). In brief, the lipid combinations were tested as carriers for gene transfer by intravenous delivery in ICR female mice (25 g), and expression was determined using the plasmid p4119 containing the CAT reporter gene under the control of the HCMV promoter. The lipids were dissolved in a mixture of chloroform and methanol (1:1). Lipid films of cationic and neutral lipid (either cholesterol or DLPE) at a 1:1 molar ratio were formed with a rotary evaporator. The films were hydrated with 5% dextrose in water (D5W) at room temperature and extruded through a series of membranes having pore sizes of 400 nm, 200 nm, and 50 nm.
DNA-liposome complexes were prepared at a 1:6 DNA:cationic lipid ratio (mg DNA per μmole cationic lipid) by adding the DNA, in a solution at 0.625 mg/mL concentration in D5W to the solution of liposomes, in an equal volume, with constant stirring, using a Hamilton Dilutor 540B (Hamilton, Reno, Nev.). DOTIM:cholesterol was used at a 1:6 DNA:cationic lipid ratio. The DNA solution was 0.3125 mg/mL DNA in D5W. The resulting complexes were sized using a Submicron Particle Sizer 370 (Nicomp, Santa Barbara, Calif.). Zeta potential was determined by a Zeta Plus, Zeta Potential Analyzer (Brookhaven Instruments Corp.). A total of 5 mice were tested per group. A dose of 62.5 μg p4119 plasmid DNA in 200 μL D5W was injected by tail vein per mouse. The lungs were harvested after 24 hours and assayed for CAT protein by ELISA assay. […] The upper organic phase was then transferred into scintillation vials containing 5 mL of Ready Safe Liquid Scintillation Cocktail (Beckman, Fullerton, Calif.). Samples were counted for 1 min each. […]

[2] = test system: CAT reporter protein in lung and serum; test: IV delivery in rabbits: CAT ELISA, lung and serum; assay type: in vivo; conditions: Rabbit #4, lipid only, highest vol. IV, about 24 h
Method: This example provides an evaluation of Compound 1 as a suitable lipid in DNA:lipid complexes for transfection in rabbits.
(§1) Pilot studies were conducted to assess the suitability of rabbits as a development model for delivery of lipid:DNA complexes. The study confirmed that rabbits offer the ability to express transfected genes as well as display some anticipated toxicity endpoints.
(§2) A 2 mL blood sample is collected immediately prior to dose delivery for serum collection and another 2 mL for a CBC/clinical chemistry screen. Sufficient blood is also collected at necropsy to perform a CBC and clinical chemistry screen and preserve serum (minimum of 8 mL).
(§3) Approximately 24 hours after dosing the animals are euthanized using a barbiturate overdose. Following euthanasia, body weights are determined and an examination is made for the presence of pleural fluid. Any fluid present is harvested while avoiding blood contamination. Total protein and albumin levels are determined on the pleural fluid.
(§4) Tissues are collected and preserved as follows: lung tissue (8 vials in liquid nitrogen, 2 lobes infused with formalin, and optionally 2 Whirlpaks® in dry ice); liver tissue (multiple sites in formalin); kidney tissue (multiple sites in formalin); spleen tissue (multiple sites in formalin); heart tissue (multiple sites in formalin); and multiple serum samples (6 mL minimum in dry ice).

[3] = IV toleration and necropsy observations in rabbits; assay type: in vivo, rabbit; conditions: just the lipid, about 24 h
Method: as §1, §2, §3, §4

CCCCCCCCCCCCCCCCCC[N+]1=C(CCCCCCCCCCCCCCCCC)N(CCO)CC1 [Formula III (Compound 2)]
mean CAT expression level (CAT ELISA) [1]: 853.20 pg/mg

CCCCCCCC/C=C\CCCCCCCC[N+]1=C(CCCCCCC/C=C\CCCCCCCC)N(CCO)CC1 [Compound 1]
lung CAT expression / in vivo activity, in words ([1]; IV, mice, both protocols): retained the in vivo activity of DOTIM | mean CAT expression level (CAT ELISA) [1]: 306.09 pg/mg | CAT ELISA, lung [2]: 0 pg/mg | CAT ELISA, serum [2]: 0 pg/mL | airway foam or excessive pleural fluid [3]: no airway foam or excessive pleural fluid was noted | lesions [3]: No lesions were noted | lung appearance at necropsy [3]: diffusely red lungs which failed to collapse
